Assay results from PubChem BioAssay (NCI).
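Cultured in 96-well plates, cells were exposed to test compound for 48 hours across five concentrations. Here, GI50 denotes the concentration required for 50% inhibition of growth. TGI: total growth inhibition.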

Tests used:
Assay in all cases: NCI tumour cell line growth inhibition, 48 h
MDA-MB-435 = system: MDA-MB-435
HCT-116 colon = system: HCT-116 colon
SF-268 CNS = system: SF-268 CNS
NCI-H460 lung = system: NCI-H460 lung
KM12 colon = system: KM12 colon
COLO 205 colon = system: COLO 205 colon
SF-295 CNS = system: SF-295 CNS
PC-3 prostate = system: PC-3 prostate
HS 578T breast = system: HS 578T breast
MDA-MB-231 breast = system: MDA-MB-231 breast

Row | SMILES | TGI (MDA-MB-435) [µM] | TGI (HCT-116 colon) [µM] | TGI (SF-268 CNS) [µM] | TGI (NCI-H460 lung) [µM] | TGI (KM12 colon) [µM] | TGI (COLO 205 colon) [µM] | TGI (SF-295 CNS) [µM] | TGI (PC-3 prostate) [µM] | TGI (HS 578T breast) [µM] | TGI (MDA-MB-231 breast) [µM] | GI50 (MDA-MB-435) [µM] | GI50 (HCT-116 colon) [µM] | GI50 (SF-268 CNS) [µM] | GI50 (NCI-H460 lung) [µM] | GI50 (KM12 colon) [µM] | GI50 (COLO 205 colon) [µM] | GI50 (SF-295 CNS) [µM] | GI50 (PC-3 prostate) [µM] | GI50 (HS 578T breast) [µM] | GI50 (MDA-MB-231 breast) [µM]
1 | COC(=O)CN1c2nc(C#N)c(C#N)nc2N(CC(=O)OC)c2nc(C#N)c(C#N)nc21 | > 100 | 3.77 | 11.4 | > 71 | 27.8 | 15.3 | 43.5 | 18.4 | 39.6 | > 52.9 |  |  |  |  |  |  |  |  |  | 
2 | CC(O)CCCOC(c1ccccc1)(c1ccccc1)c1ccccc1 (stereo not given) | 30.4 | 26.9 | 29.8 | 30.6 | 27.8 | 39.3 | 27.4 | 23.7 | 39.6 | 33.3 |  |  |  |  |  |  |  |  |  | 
3 | Cc1cn(-c2cc(C(=O)Nc3cccc(-n4ccc5c(NC(=O)c6ccccc6)nccc54)c3)cc(C(F)(F)F)c2)cn1 | 0.635 | 1.35 | 7.89 | 1.2 | 1.46 | 1.71 | 1.44 | 15.6 | 1.73 | 3.62 | 0.217 | 0.291 | 0.514 | 0.29 | 0.372 | 0.525 | 0.306 | 0.393 | 0.252 | 0.68
4 | COC(C)(C)[C@@H](O)[C@H]1C[C@H](C)[C@@]2(CC[C@]3(C)[C@@H]2CC[C@@H]2[C@@]4(C)CC[C@@H](OC(C)=O)C(C)(C)[C@@H]4C[C@@H](OC4OC(COC(C)=O)C(O)C(O)C4O)[C@]23C)O1 (stereo not given in full) | 12.3 | 11.5 | 18.6 | 15.6 | 3.62 | 6.18 | 16.5 | 8.1 | 23.7 | 24.9 |  |  |  |  |  |  |  |  |  | 
5 | CCOC(CNCCC(=O)OC)OCC | > 10 | > 10 | > 10 | > 10 | > 10 | > 10 | > 10 | > 10 | > 10 | > 10 |  |  |  |  |  |  |  |  |  | 
6 | CCc1c[n+]([O-])c(C)cc1[N+](=O)[O-] | > 100 | > 100 | > 100 | 63.5 | > 100 | 29.6 | > 100 | > 100 | > 100 | 80.7 |  |  |  |  |  |  |  |  |  | 
7 | O=C1CC(C(O)(C(F)(F)F)C(F)(F)Cl)CCC1C(O)(C(F)(F)F)C(F)(F)Cl (stereo not given) | > 10 | > 10 | > 10 | > 10 | > 10 | > 10 | > 10 | > 10 | > 10 | > 10 |  |  |  |  |  |  |  |  |  | 
8 | O=[N+]([O-])c1ccc(/C=C/c2cc(-c3ccccc3)nc3ccc4ccccc4c23)cc1 | > 100 | > 100 | > 100 | > 100 | > 100 | > 100 | > 100 | > 100 | > 100 | > 100 |  |  |  |  |  |  |  |  |  | 
9 | Clc1ccc(CSCCc2ccncc2)cc1Cl | 49.5 | 31.5 | 49.5 | > 100 | 50.9 | 27.2 | 41.8 | 45.4 | 53.8 | 29.1 |  |  |  |  |  |  |  |  |  | 
10 | CCOC(=O)C(Cl)(Cl)/S(=N\S(=O)(=O)c1ccccc1)NC(=O)c1ccccc1 (stereo not given) | > 100 | > 100 | > 100 | > 100 | > 100 | > 100 | > 100 | > 100 | > 100 | > 100 |  |  |  |  |  |  |  |  |  | 
11 | S=c1[nH]c2ccc(Br)cc2c(=S)s1 | 67.2 | 52.1 | > 100 | 62.4 | > 100 | 32.2 | 85.1 | 49.8 | > 100 | 63.7 |  |  |  |  |  |  |  |  |  | 
12 | N#CCc1nc(-c2ccccc2)n[nH]1 | > 100 | > 100 | > 100 | > 100 | > 100 | > 100 | > 100 | > 100 | > 100 | > 100 |  |  |  |  |  |  |  |  |  | 
13 | Oc1[nH]c2ccc(Br)cc2c1N=NC(=S)Nc1ccc(F)cc1 | 13.6 | 18 | 35.7 | 15.3 | 30.5 | 22.4 | 21.8 | 39.1 | 63.6 | 35.5 |  |  |  |  |  |  |  |  |  | 
14 | O=C(O)C(SC1=NNC2(C(=O)N1)c1ccccc1-c1ccccc12)SC1=NNC2(C(=O)N1)c1ccccc1-c1ccccc12 | > 10 | > 10 | > 10 | > 10 | > 10 | > 10 | > 10 | > 10 | > 10 | > 10 |  |  |  |  |  |  |  |  |  | 
15 | CCCCn1cnc2c(c(CC#N)nn2-c2ccccc2)c1=N | > 100 | > 100 | > 100 | > 100 | > 100 | 92.8 | > 100 | > 100 | > 100 | > 100 |  |  |  |  |  |  |  |  |  | 
16 | CC(=O)O/N=C/c1c2ccccc2cc2ccccc12 | > 100 | > 100 | > 100 | > 100 | > 100 | > 100 | > 100 | > 100 | > 100 | > 100 |  |  |  |  |  |  |  |  |  | 
